Results as given in patent publication US20130324606A1, “Ester Derivatives of Bimatoprost Compositions and Methods” (ALLERGAN, INC., priority 2011, published 2013).

Legend:
[1] = Pharmacokinetic assessment of mouse hair regrowth model; format: in vivo; conditions: mice, 0.03% dermal daily ~60 uL, all measured time points, LC/MS-MS
Protocol: Female C57BL/6J mice (n=2) were assayed per time point per treatment group. Treatment groups: (1) vehicle; (2) 0.03% Cmpd IVa; (3) 0.03% Cmpd IIIb; (4) 0.03% Cmpd IVb; (5) 0.03% bimatoprost. Treatment dosing: dermal daily application of ˜60 uL test compound solution. Blood and skin pharmacokinetic time points were obtained at day 1 (1, 4, 8 and 24-hrs post-dose); day 2 (24-hrs post-dose); day 14 (24-hrs post-dose); and day 42 (28 days post day 14 dose). Bioanalysis employed LC/MS-MS.

[2] = In vitro human skin penetration (Franz diffusion chamber); format: in vitro ADME; conditions: 0.03% in Formulation A, dosed compound
Excerpt: Test material: Dermatomed ex vivo human cadaver posterior trunk skin on 1.0 cm^2 Franz diffusion chamber as known in the art. Test size: 3 skin donors (obtained from New York Firefighters Skin Bank), 3 replicates per donor per formulation. Test formulations: 0.03% active agent (Cmpd IVa, Cmpd IIIb, Cmpd IVb) in Formulation A; control formulation: bimatoprost at 0.03% in Formulation A. Dosing regimen: receptor fluid at 2, 4, 24, and 48 hrs; SC/epidermis and dermis at 48 hrs. Sample analysis: LC/MS-MS to detect bimatoprost and Cmpds IVa, IIIb and IVb.

[3] = tested on: mouse skin; assay: Pathology assessment of mouse hair regrowth model; format: in vivo, mice; conditions: histology, 0.03% active, vehicle control still in growth phase
Excerpt: Histological samples from test subjects employed in the studies described in Example 12 were obtained for pathology assessment.

[4] = Partitioning in artificial sebum; format: physicochemical
Protocol: Compounds bimatoprost, Cmpd IVa, and Cmpd IIIb were added to aqueous solution (1 mL, 2-20 ug/mL), with and without 1-20 mg artificial sebum. Samples were shaken for 16 hr at 37° C. Samples were then centrifuged (8000 RPM) for 15 min at room temperature, prior to collection of the aqueous solution. Samples were analyzed for concentration of compound without artificial sebum (i.e., Co) and with artificial sebum (i.e., Ci) by mass spectroscopy. Artificial sebum and water partition coefficient (Ksebum) was expressed as the concentration of drug in 1 g of artificial sebum divided by the concentration of drug in 1 g of aqueous solution, and was calculated as Ksebum=(Co−Ci)Waqueous/(Ci×Wsebum) (Eqn. 1), where W represents weight.
Artificial sebum was prepared as follows: 15% (w/w) squalene, 15% spermaceti, 10% coconut oil, 1.5% oleic acid, 5% palmitic acid, 2.4% cholesterol oleate, 10% paraffin wax, 10% olive oil, 25% cottonseed oil, 5% palmitoleic acid, 1.2% cholesterol. The melting point of the semi-liquid was 37° C.

[5] = tested on: C57Black/6J mice; assay: Piliation (hair regrowth) studies in mice; format: in vivo; conditions: 0.03%, topical QD 14 days, vehicle 50% propylene glycol, 30% ethanol, 20% water
Protocol: C57Black/6J, 7-week old female mice (n=10) were employed in piliation studies. Dorsal hair was shaved (area ˜2 cm×4 cm). Dosing of active agent was once per day (QD) by topical administration for 14 days. Observations were conducted for 42-days to determine onset of new hair growth and day of hair growth completion. Compounds were formulated as either a) 50% propylene glycol, 30% ethanol, 20% water, or b) the formulation of Formulation A described above. The experiments reported for FIGS. 4A-4B, 5A-5B, 6A-6B, 8A-8B, and 9A-9B were conducted using a vehicle with formulation of 50% propylene glycol, 30% ethanol, 20% water. The experiments reported for FIGS. 7A-7B were conducted using a vehicle of Formulation A described above.
For each of FIGS. 4A, 5A, 6A, 7A, 8A and 9A, the histograms depict the day of onset of hair growth. For each of FIGS. 4B, 5B, 6B, 7B, 8B and 9B, the histograms depict the day achieving full hair growth.

[6] = tested on: human hair dermal papilla cells, HHDPC; assay: Cellular dielectric spectroscopy (CDS) in dermal papilla cells; format: cell-based
Protocol: Cellular dielectric spectroscopy (CDS) was conducted in an assay of dermal papilla cells (i.e., human hair dermal papilla cells, HHDPC) with bimatoprost and Cmpds IVc and IVb. As known in the art, CDS is a real-time, non-invasive, label-free, high-throughput, cell-based assay which measures electrical cell impedance. Without wishing to be bound by any theory, it is believed that GPCR activation induces changes in cell morphology, cell-cell interaction, and cell adherence which manifest as a change in cell impedance.

[7] = Compound distribution in mouse skin by MALDI-MS imaging; format: in vivo; conditions: topical dermal, once daily 3 days, 4 hr after day-3 dosing
Protocol: In order to determine the penetration, accumulation and/or differential distribution of bimatoprost and compounds disclosed herein upon dermal administration, MALDI-MS (matrix assisted laser desorption ionization mass spectroscopy) imaging was conducted on explanted samples of mouse skin after topical dermal administration.
MALDI-MS imaging was conducted on mouse skin strips after administration of bimatoprost or compound disclosed herein once daily for 3 days. Samples of mouse skin were recovered 4 hr after day-3 dosing of compound. Dermal administration was conducted with vehicle, 0.03% bimatoprost, 3% bimatoprost, 0.03% Cmpd IVa, and 3% Cmpd IVa.
FIG. 16A depicts a typical explanted sample of mouse skin for these studies, wherein Cmpd IVa was applied via dermal administration. FIG. 16B depicts the result of MALDI-MS imaging. The intensity of each pixel within FIG. 16B reflects the concentration of Cmpd IVa at the corresponding point in the image depicted in FIG. 16A. FIG. 16C depicts a representative mass spectrum, corresponding to the region of FIG. 16B indicated by the white circle within FIG. 16B. Accordingly, each pixel of the image of FIG. 16B has an associated mass spectrum, providing the amounts of bimatoprost or other administered compound or metabolite thereof.

CCNC(=O)CCC/C=C\C[C@@H]1[C@@H](/C=C/[C@@H](O)CCc2ccccc2)[C@H](O)C[C@@H]1O [bimatoprost, (Z)-7-((1R,2R,3R,5S)-3,5-dihydroxy-2-((S,E)-3-hydroxy-5-phenylpent-1-enyl)cyclopentyl)-N-ethylhept-5-enamide]
level in the systemic circulation [1]: most undetectable
Percentage Dose Applied, Receptor Chamber Solution, Prodrug ([2]; Franz chamber): 1.1 Percentage Dose Applied
Percentage Dose Applied, Upper ⅓ Dermis, Prodrug ([2]; dermis at 48 hrs): 7.0 Percentage Dose Applied
hair cycle phase at day-42 [3]: returned to the resting phase
phase in which the majority of compound remains ([4]; artificial sebum / aqueous solution): remain in the aqueous phase
Ave. Ksebum (artificial sebum and water partition coefficient) ([4]; n = 4, 16 hr at 37° C.): 3.6
days for hair growth to commence (day of onset of hair growth) ([5]; FIG. 6A): 22 days
days for full hair growth to be achieved ([5]; FIG. 6B): 44 days
change in cell impedance [6]: characteristic change in cell impedance
EC50 ([6]; cell impedance, tested range 10^−4 to 10^−13 mol/L): 3.0 to 6.3×10^−7 mol/L
levels of bimatoprost in skin after 3.0% bimatoprost versus after 3.0% Cmpd IVa [7]: much higher
